Measurements published in US8236761B2, “C-Met receptor regulation by angiotensin IV (AT4) receptor ligands” (Washington State University Research Foundation, priority 2006, dated 2012).
Non-standard residues stand in square brackets, D forms with d. No end group written: not given here. Nle = CCCC[C@H](N)C(=O)O

Key:
MDCK cells = assay: c-Met/HGF stimulated MDCK cell proliferation (MTT); format: cell-based, canine; conditions: HGF 10 ng/ml, COMPOUND 2 10^−6M to 10^−14M, four days
Experimental: (§1) Thereafter, 10 ng/ml of HGF alone and with the indicated concentrations of Norleual in a 1% FBS DMEM were added to the cells. The cells were cultured under these conditions for four days. On the fourth day, the treatment media was aspirated and replaced with 5 mg/ml of MTT reagent in 0.1 M glycine buffer (Invitrogen). The MTT reagent was incubated with the cells for four hours at 37° C. before adding DMSO to solubilize the cells and record the MTT absorbance on a plate reader. The controls were treated as background and subtracted from all of the treatments to determine the increase in proliferation due solely to HGF treatment. Differences between the treatments were determined using one-way ANOVA with Bonferroni's post-hoc analysis (Prism statistical analysis software). * indicate p<0.05 vs. HGF treatment. N=6, mean+/−SEM. […] Madin-Darby Canine Kidney (MDCK) cells were plated in the wells of a 96 well plate in 100 μl of complete Dulbecco's Modified Eagle's Medium (DMEM). The cells were serum starved for 24 hours to induce quiescence. […] Absorbance of the cleaved substrate was quantitated on a Biotek Synergy HT 2 plate reader according to the manufacturer's instructions. […] The data was analyzed with Prism® (GraphPad, San Diego, Calif.) statistical analysis software. * indicates p<0.01 vs. HGF treatment by Tukey's post-hoc analysis. […]

[1] = tested on: urokinase plasminogen activator (uPA); assay: c-Met/HGF urokinase plasminogen activator (uPA) induction in MDCK cells; format: cell-based, canine; conditions: HGF 10 ng/ml, Norleual 10^−10 M and 10^−12 M, 48 hours
Experimental: as §1

Erk1/2, Akt = assay: Erk1/2 and Akt phosphorylation in HGF-treated B16-F10 cells (scratch wound assay); format: cell-based, murine
Experimental: Immunoprecipitation and Western blotting. Cells were serum starved for two hours in DMEM before treatment. Cells were harvested using RIPA lysis buffer (Upstate Biotechnol. Inc., Lake Placid, N.Y.) with phosphatase inhibitor cocktails 1 and 2 (Sigma, St Louis, Mo., USA). Protein concentration was determined using the BCA assay (Pierce, Rockford, Ill., USA). Lysates were incubated with antibody overnight at 4° C. Immunoprecipitation controls received mouse non-specific Ig (Upstate). Proteins were captured with protein-A agarose (Upstate) and were washed with PBS. Proteins were resolved using SDS-PAGE electrophoresis (Criterion, BioRad, Hercules, Calif., USA), transferred to nitrocellulose, and incubated with appropriate antibodies. Proteins were visualized using the Supersignal West Pico Chemiluminescent Substrate system (Pierce). The film images were digitized and analyzed using TotalLab® software (AmershamPharmacia/GE HealthCare, Piscataway, N.J.).
In addition, molecules associated with proliferation and migration signal transduction in B16-F10 melanoma cells were investigated in the scratch wound assay. HGF alone promoted enhanced phosphorylation of the signal transduction molecules Erk1/2, an effect that was attenuated by the presence of Norleual (FIG. 11B).

c-Met = c-Met (Homo sapiens, UniProt P08581); assay: HGF-induced Met/Gab1 association in HUVEC (IP/IB); format: cell-based; conditions: 5 minutes treatment
Experimental: FIG. 16 depicts inhibition of angiogenesis by Norleual (Compound 2, SEQ ID NO:43) in the mouse aortic ring assay. Rings were incubated in EGM-2 media (Cambrex) with (n=8) or without (n=6) 100 pM Norleual for four days. Digital photos of the rings were taken on day four. FIG. 16A: Quantification of aortic ring angiogenesis. Areas covered by angiogenic sprouts were quantified from day four ring photos, control (−) and Norelual treated (+) (p-value=0.012* and error bars indicate ±SEM). FIG. 16B: HUVECs were treated for 5 minutes with HGF and/or Norleual at indicated concentrations. Lysates were IP with anti-c-Met and IB with anti-c-Met or Gab1.
Immunoprecipitation and Western blotting. Cells were serum starved for two hours in DMEM before treatment. Cells were harvested using RIPA lysis buffer (Upstate Biotechnol. Inc., Lake Placid, N.Y.) with phosphatase inhibitor cocktails 1 and 2 (Sigma, St Louis, Mo., USA). Protein concentration was determined using the BCA assay (Pierce, Rockford, Ill., USA). Lysates were incubated with antibody overnight at 4° C. Immunoprecipitation controls received mouse non-specific Ig (Upstate). […] The film images were digitized and analyzed using TotalLab® software (AmershamPharmacia/GE HealthCare, Piscataway, N.J.).
See Example 1 for Materials and Methods. Angiogenesis was evaluated with the ex vivo mouse aortic ring assay in the presence and absence of Norleual. […]

Chain of c-Met (P08581 308-1390 limits assumed): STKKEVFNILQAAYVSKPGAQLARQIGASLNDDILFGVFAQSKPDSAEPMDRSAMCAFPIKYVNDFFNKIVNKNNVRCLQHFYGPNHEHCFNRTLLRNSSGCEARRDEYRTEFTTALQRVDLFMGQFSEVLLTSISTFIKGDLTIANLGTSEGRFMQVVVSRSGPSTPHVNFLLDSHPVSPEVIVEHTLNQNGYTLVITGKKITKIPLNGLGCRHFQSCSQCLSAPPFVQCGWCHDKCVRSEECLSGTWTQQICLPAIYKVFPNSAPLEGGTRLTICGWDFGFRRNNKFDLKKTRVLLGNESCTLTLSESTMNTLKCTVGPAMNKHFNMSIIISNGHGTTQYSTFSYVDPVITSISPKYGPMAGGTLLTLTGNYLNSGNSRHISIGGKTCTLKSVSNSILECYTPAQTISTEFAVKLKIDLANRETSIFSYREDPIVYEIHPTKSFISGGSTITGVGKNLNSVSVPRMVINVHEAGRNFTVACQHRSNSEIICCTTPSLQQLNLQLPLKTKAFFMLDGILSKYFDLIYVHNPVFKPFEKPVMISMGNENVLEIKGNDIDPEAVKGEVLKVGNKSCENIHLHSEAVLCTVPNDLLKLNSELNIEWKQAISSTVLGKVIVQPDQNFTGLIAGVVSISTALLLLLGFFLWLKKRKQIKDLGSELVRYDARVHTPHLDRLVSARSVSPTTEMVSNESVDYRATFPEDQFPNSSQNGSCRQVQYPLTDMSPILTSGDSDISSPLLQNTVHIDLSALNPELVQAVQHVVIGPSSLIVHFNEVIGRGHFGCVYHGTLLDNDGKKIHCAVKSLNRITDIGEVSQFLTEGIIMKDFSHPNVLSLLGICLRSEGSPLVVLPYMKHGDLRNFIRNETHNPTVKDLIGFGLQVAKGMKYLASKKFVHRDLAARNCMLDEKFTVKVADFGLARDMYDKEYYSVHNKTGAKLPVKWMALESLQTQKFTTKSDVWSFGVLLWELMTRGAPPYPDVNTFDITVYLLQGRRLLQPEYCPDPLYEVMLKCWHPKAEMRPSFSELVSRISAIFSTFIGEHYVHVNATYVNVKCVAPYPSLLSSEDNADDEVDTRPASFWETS
Chain of c-Met (P08581 25-307 limits assumed): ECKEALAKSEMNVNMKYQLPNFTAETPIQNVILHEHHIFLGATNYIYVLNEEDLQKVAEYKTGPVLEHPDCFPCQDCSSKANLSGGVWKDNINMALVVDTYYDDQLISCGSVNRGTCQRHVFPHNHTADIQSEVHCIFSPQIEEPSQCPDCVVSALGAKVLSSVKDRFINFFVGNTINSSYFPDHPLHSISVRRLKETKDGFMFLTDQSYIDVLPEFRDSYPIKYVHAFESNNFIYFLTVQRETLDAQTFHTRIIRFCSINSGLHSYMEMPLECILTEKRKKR

In the case of “Nle-Tyr-Leu-ψ-His-Pro-Phe ([Nle]YLHPF; also: reduced peptide bond psi(CH2NH2) between Leu and His) [Norleual]”, the “HGF stimulated MDCK cellular proliferation” value (MDCK cells) is reported as “attenuation”, the “HGF stimulated MDCK cellular proliferation” value (MDCK cells; listed as Compound 2) is reported as “inhibited” and the “c-Met/HGF uPA induction” value [1] is reported as “attenuation”. The “HGF-enhanced phosphorylation of Erk1/2” value (Erk1/2, Akt) was “attenuated”, the “HGF-induced Akt phosphorylation” value (Erk1/2, Akt) was “did not affect” and the “HGF-induced Met/Gab1 association in HUVEC” value (c-Met) was “inhibited”.
